Experimental data from patent publication US20220249711A1, “METHODS FOR TREATING TUMORS” (CENTRE HOSPITALIER UNIVERSITAIRE DE GRENOBLE, priority 2019, published 2022).

Legend:
[1] = test system: brain metastases; test: MRI signal enhancement in brain metastases, Nano-Rad phase I-b trial; type: in vivo, human; details: D0, 15 min after i.v. Dotarem 0.2 mL/kg (0.1 mmol/kg); metastases >1 cm; mean ±SD
Description: This study is part of a prospective dose escalation phase I-b clinical trial to evaluate the tolerance of the intravenous administration of radiosensitizing AGuIX nanoparticles in combination with whole brain radiotherapy for the treatment of brain metastases. The Nano-Rad trial (Radiosensitization of Multiple Brain Metastases Using AGuIX Gadolinium Based Nanoparticles) was registered as NCT02820454. Here, we report the findings of the MRI protocol applied to the 15 recruited patients. The objectives assigned to this MRI ancillary study were to i) assess the distribution of AGuIX nanoparticles in brain metastases and surrounding healthy tissues and ii) to measure the T1-weighted contrast enhancement and nanoparticle concentration in brain metastases and surrounding healthy tissues after intravenous administration of AGuIX nanoparticles (Verry C, et al. BMJ Open. 9:e023591 (2019)).
Patients with multiple brain metastases ineligible for local treatment by surgery or stereotactic radiation were recruited. […]

[2] = magnetic field of 3 Tesla; reference cited; cited from earlier work

Compound: CNC[C@H](O)[C@@H](O)[C@H](O)[C@H](O)CO.O=C([O-])CN1CCN(CC(=O)[O-])CCN(CC(=O)O)CCN(CC(=O)[O-])CC1.[Gd+3] [Dotarem, gadoterate meglumine]
- MRI enhancement averaged over all measurable metastases [1]: 182.9±116.2%
- r1 per Gd^3+ ion [2]: 3.5 mM⁻¹ s⁻¹
